Source: patent US20040176310A1, “Use of extracts and preparations from iris plants and tectorigenin as medicaments” (priority 2001, published 2004)

Key:
[1] = tested on: prostate; assay: prostate regression / testosterone-induced prostate growth in castrated rats; format: in vivo, rat
Excerpt: (§1) The prostate regression induced by castration could be antagonized by testosterone in experiments with rats.

[2] = tested on: IGF1; assay: IGF1 gene expression in the prostate of castrated male rats; format: in vivo, rat
Excerpt: as §1

[3] = tested on: Nerve Growth Factor (NGF); assay: gene expression of Nerve Growth Factor (bladder); format: in vivo, rat
Excerpt: Bladder tonus is largely influenced by nerve cells located in the bladder wall and other vegetative nerve cells. The “Nerve Growth Factor” (NGF) is an indicator for the local activity of the nerve cells.

[4] = tested on: estrogen receptor-beta; assay: gene expression of estrogen receptor-beta in the prostate of male castrated rat; format: in vivo
[5] = tested on: estrogen receptor-alpha; assay: gene expression of estrogen receptor-alpha in the bladder of castrated rats; format: in vivo, rat
[6] = tested on: estrogen receptor of alpha-subtype; assay: gene expression of estrogen receptor alpha-subtype in the prostate of male castrated rat; format: in vivo

SMILES | prostate regression induced by castration [1] | gene expression of the growth factor IGF1 [2] | gene expression of Nerve Growth Factor (NGF) [3] | gene expression of the estrogen receptor-beta [4] | gene expression of the estrogen receptor-alpha [5] | gene expression of the estrogen receptor of alpha-subtype [6]
C[C@]12CC[C@H]3[C@@H](CCC4=CC(=O)CC[C@@]43C)[C@@H]1CC[C@@H]2O [testosterone] | antagonized | regulated up | observed under neither estradiol nor testosterone |  |  | 
C[C@]12CC[C@@H]3c4ccc(O)cc4CC[C@H]3[C@@H]1CC[C@@H]2O [estradiol, 17β-estradiol] |  |  | observed under neither estradiol nor testosterone | without having an effect | regulate down | significantly inhibit
